# Measurements taken from patent publication US9925198B2, “Pharmaceutical composition for preventing or treating hearing loss, comprising carbenoxolone or its pharmaceutically acceptable salts as effective compound” (AJOU UNIVERSITY INDUSTRY-ACADEMIC COOPERATION FOUNDATION, priority 2015, dated 2018).
# Where “and” joins values, the source holds several entries; their conditions need not be identical. Equal entries are not always repeated. Entries after “also recorded” stand apart in the source; their conditions may differ. Where two headings read alike, the source gives them in different places.
# Tests used:
# [1] = tested on: auditory outer hair cells; experiment: Scanning electron microscope (SEM) analysis of cochlea, auditory outer hair cell damage; format: in vivo, SD-rat; conditions: basal turn (32 kHz) and middle turn (16 kHz)
# Text: Also, degrees of loss and damage on auditory cells at the basal turn (32 kHz) and the middle turn (16 kHz) in cochlea were confirmed by using a scanning electron microscope (SEM) to analyze the shape of cochlea.
# [2] = tested on: ototoxic hearing loss induced by cisplatin; experiment: Auditory brainstem response (ABR) test, hearing threshold in rats with cisplatin-induced ototoxic hearing loss; format: in vivo, SD-rat; conditions: for hearing threshold (ABR) at 16 kHz / hearing threshold (ABR) at 32 kHz: measured 5 days after; for hearing threshold (ABR) at 16 kHz: tone burst 16 kHz; for hearing threshold (ABR) at 32 kHz: tone burst 32 kHz
# Experimental: Auditory acuity was evaluated by performing an auditory brainstem response (ABR) test on the SD-rat before and after the drug administration. The ABR test was determines the minimum stimuli intensity (dB) that evokes the waveform of wave V by providing tone burst of 16 kHz and 32 kHz using a TDT ABR device as a hearing threshold, and the auditory acuities were measured 1 day before the drug administration and 5 days after the drug administration.
# [3] = tested on: auditory sensory hair cell stereocilia; experiment: Phalloidin staining of auditory sensory hair cell stereocilia in cochlea; format: in vivo, SD-rat; conditions: basal turn (32 kHz) and middle turn (16 kHz)
# Experimental: Phalloidin staining was performed on auditory sensory hair cell stereocilia markers of the SD-rats administered with drugs by using the method described above to confirm degrees of loss or damage on auditory cells at sites of the basal turn (32 kHz) and the middle turn (16 kHz).
# cisplatin-takers = conditions: cited from earlier work
# [4] = cisplatin 16 mg/kg + 18α-GA 100 mg/kg
# [5] = cisplatin 16 mg/kg i.p. once + 18α-GA 100 mg/kg daily 2 days before and after cisplatin
# [6] = cisplatin 16 mg/kg + carbenoxolone sodium 50 mg/kg, vs cisplatin alone
# [7] = cisplatin 16 mg/kg i.p. once + carbenoxolone sodium 50 mg/kg daily 2 days before and after cisplatin
# [8] = cisplatin alone 16 mg/kg, compared to control group
smiles,measurement,setting,value
"CC1(C)[C@@H](O)CC[C@]2(C)[C@H]3C(=O)C=C4[C@H]5C[C@@](C)(C(=O)O)CC[C@]5(C)CC[C@@]4(C)[C@]3(C)CC[C@@H]12 [18α-GA, 18α-glycyrrhetinic acid]","damage prevention effect (SEM, FIG. 4)",[1]; [4],not confirmed
same,hearing thresholds compared with the cisplatin-treated group,"[2]; cisplatin 16 mg/kg + 18α-GA 100 mg/kg, 16 kHz and 32 kHz",no significant difference; also recorded: did not show significant difference
same,hearing threshold (ABR) at 16 kHz,[2]; [5],49.3±4.8 dB and 46.2±4.1 dB
same,hearing threshold (ABR) at 32 kHz,[2]; [5],46.2±4.1 dB
same,"damage prevention effect (phalloidin staining, FIG. 3)",[3]; [4],not exhibited
CC1(C)[C@@H](OC(=O)CCC(=O)O)CC[C@]2(C)[C@H]3C(=O)C=C4[C@@H]5C[C@@](C)(C(=O)O)CC[C@]5(C)CC[C@@]4(C)[C@]3(C)CC[C@@H]12 [carbenoxolone sodium],"preservation of outer hair cells (SEM, FIG. 4)",[1]; [6],significantly preserved
same,hearing threshold (ABR) at 16 kHz,[2]; [7],26.3±7.5 dB
same,hearing threshold (ABR) at 32 kHz,[2]; [7],28.8±4.8 dB
same,"preservation of outer hair cells (phalloidin staining, FIG. 3)",[3]; [6],significantly preserved
N.N.[Cl][Pt][Cl] [cisplatin],auditory impairment occurrence frequency,cisplatin-takers; children,about 50%
same,auditory impairment occurrence frequency,cisplatin-takers; cisplatin-takers,about 30%
same,"auditory outer hair cell damage (SEM, FIG. 4)",[1]; [8],damages on auditory outer hair cells were observed in numbers; also recorded: a number of auditory outer hair cell damages were observed
same,"stereocilia damage (phalloidin staining, FIG. 3)",[3]; [8],a number of stereocilia damages were observed
